Measurements reported in the supplement of paper PMC4862054.

What was measured:
Assay in all cases: normalised response (% of control), CellTiter-Glo; higher = more viable cells (100 = DMSO, 0 = benzethonium chloride kill control)
Details in all cases: incubation time: 72 h
MDA-MB-436 = test system: MDA-MB-436
Summary of the method: (§1)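 Each value is the plate-normalised signal at one concentration of the series. Breast cancer cell lines (20 µl suspension) were incubated 72 h in 384-well plates with compound at 5 concentrations in 10-fold steps over a compound-specific 10,000-fold range. CellTox Green and then CellTiter-Glo were read, and each plate was scaled to 0.1 % DMSO (100) and a positive kill control (0).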

CAL-120 = test system: CAL-120
Summary of the method: as §1

CAL-51 = test system: CAL-51
Summary of the method: as §1

MDA-MB-468 = test system: MDA-MB-468
Summary of the method: as §1

HDQ-P1 = test system: HDQ-P1
Summary of the method: as §1

SK-BR-3 = test system: SK-BR-3
Summary of the method: as §1

MCF-10A = test system: MCF-10A
Summary of the method: as §1

HCC1143 = test system: HCC1143
Summary of the method: as §1

BT-549 = test system: BT-549
Summary of the method: as §1

HCC1937 = test system: HCC1937
Summary of the method: as §1

CAL-85-1 = test system: CAL-85-1
Summary of the method: as §1

MFM-223 = test system: MFM-223
Summary of the method: as §1

MDA-MB-453 = test system: MDA-MB-453
Summary of the method: as §1

HCC1599 = test system: HCC1599
Summary of the method: as §1

BT-474 = test system: BT-474
Summary of the method: as §1

DU-4475 = test system: DU-4475
Summary of the method: as §1

MDA-MB-231 = test system: MDA-MB-231
Summary of the method: as §1

CAL-148 = test system: CAL-148
Summary of the method: as §1

Hs578T = test system: Hs578T
Summary of the method: as §1

Structure (SMILES) | normalised response (MDA-MB-436) | normalised response (CAL-120) | normalised response (CAL-51) | normalised response (MDA-MB-468) | normalised response (HDQ-P1) | normalised response (SK-BR-3) | normalised response (MCF-10A) | normalised response (HCC1143) | normalised response (BT-549) | normalised response (HCC1937) | normalised response (CAL-85-1) | normalised response (MFM-223) | normalised response (MDA-MB-453) | normalised response (HCC1599) | normalised response (BT-474) | normalised response (DU-4475) | normalised response (MDA-MB-231) | normalised response (CAL-148) | normalised response (Hs578T)
CN[C@@H]1C[C@H]2O[C@@](C)([C@@H]1OC)n1c3ccccc3c3c4c(c5c6ccccc6n2c5c31)C(=O)N[C@H]4O [UCN-01] (1000 nM) | 27.5% | 20.5% | 11.8% | 5.24% | 18.8% | 22.3% | 1.2% | 17.3% | 17.8% | 32% | 23.2% | 30.2% | 34% | 8.97% | 12.4% | 7.33% | 7.91% | 75.2% | 11.7%
O=C1CCC(N2C(=O)c3ccccc3C2=O)C(=O)N1 (configuration not stated) [Thalidomide] (1000 nM) | 99.1% | 101% | 120% | 106% | 101% | 99.4% | 102% | 95.9% | 96.3% | 98% | 94.5% | 93.8% | 102% | 114% | 102% | 100% | 95.8% | 96% | 107%
CN(N=O)C(=O)N[C@@H](C=O)[C@@H](O)[C@H](O)[C@H](O)CO [Streptozocin] (1000 nM) | 98.3% | 105% | 107% | 104% | 107% | 100% | 109% | 112% | 98.2% | 108% | 104% | 103% | 109% | 107% | 107% | 100% | 106% | 100% | 109%
Cc1ccc(C(=O)Nc2ccc(CN3CCN(C)CC3)c(C(F)(F)F)c2)cc1C#Cc1cnc2cccnn12 [Ponatinib] (100 nM) | 97% | 86.3% | 112% | 120% | 92.1% | 107% | 103% | 97.6% | 107% | 97.2% | 105% | 54.5% | 110% | 117% | 93% | 99.3% | 91.4% | 99.6% | 96.5%
CCC1=C[C@@H]2CN(C1)Cc1c([nH]c3ccccc13)[C@@](C(=O)OC)(c1cc3c(cc1OC)N(C)[C@H]1[C@@](O)(C(=O)OC)[C@H](OC(C)=O)[C@]4(CC)C=CCN5CC[C@]31[C@@H]54)C2 [Vinorelbine] (1000 nM) | 24.7% | 66.9% | 26.7% | 30.3% | 76.2% | 16.9% | 63% | 56.9% | 41.8% | 73.8% | 39% | 39.3% | 56.1% | 26% | 55.7% | 69.9% | 43.5% | 43.2% | 35.5%
CC1(C)NC(=O)N(c2ccc([N+](=O)[O-])c(C(F)(F)F)c2)C1=O [Nilutamide] (1000 nM) | 106% | 102% | 82.4% | 119% | 97.7% | 110% | 111% | 101% | 91.2% | 103% | 98.5% | 107% | 102% | 110% | 99.8% | 105% | 102% | 109% | 113%
Oc1nc(-c2ccc(C(F)(F)F)cc2)nc2c1CSCC2 [XAV-939] (1000 nM) | 96.7% | 92% | 89.3% | 82% | 101% | 84.4% | 88.8% | 88.8% | 91.8% | 91.1% | 105% | 96.1% | 91.4% | 104% | 79.8% | 92.8% | 76.8% | 89.8% | 92.3%
Cc1ccc(-n2nc(C(C)(C)C)cc2NC(=O)Nc2ccc(OCCN3CCOCC3)c3ccccc23)cc1 [Doramapimod] (1000 nM) | 105% | 101% | 111% | 87.5% | 89.1% | 80.8% | 89.1% | 95.2% | 99.6% | 95.1% | 121% | 87.6% | 85.8% | 108% | 86.1% | 96% | 83.7% | 80.3% | 97%
Cn1c(CCCC(=O)O)nc2cc(N(CCCl)CCCl)ccc21 [Bendamustine] (1000 nM) | 101% | 104% | 112% | 117% | 102% | 107% | 96.9% | 106% | 92.4% | 95.7% | 101% | 111% | 117% | 105% | 101% | 101% | 106% | 110% | 106%
N[C@@H](CSC(c1ccccc1)(c1ccccc1)c1ccccc1)C(=O)O [S-trityl-L-cysteine] (4000 nM) | 100% | 102% | 87.3% | 105% | 99.5% | 94.3% | 96.3% | 94% | 98.6% | 97.3% | 99.8% | 101% | 103% | 109% | 102% | 91.1% | 105% | 97.6% | 99.2%
Cn1c(Nc2ccc(C(F)(F)F)cc2)nc2cc(Oc3ccnc(-c4ncc(C(F)(F)F)[nH]4)c3)ccc21 [RAF265] (100 nM) | 89.8% | 82.9% | 77.8% | 85.5% | 75% | 92% | 91.4% | 95.9% | 91.1% | 91.6% | 98.5% | 96.5% | 110% | 120% | 99.3% | 95.3% | 104% | 97.1% | 82.5%
CCC1(c2ccc(N)cc2)CCC(=O)NC1=O (configuration not stated) [Aminoglutethimide] (1000 nM) | 102% | 105% | 80.4% | 105% | 97% | 95.6% | 101% | 97.6% | 94.7% | 96.8% | 103% | 101% | 100% | 115% | 100% | 101% | 105% | 96.2% | 101%
O=P1(NCCCl)OCCCN1CCCl (configuration not stated) [Ifosfamide] (1000 nM) | 91.3% | 91.4% | 105% | 90.9% | 104% | 92% | 95.6% | 94.7% | 96.1% | 97.7% | 96.8% | 92.5% | 92.5% | 96.1% | 93.3% | 90.6% | 88.3% | 89% | 97.8%
COc1cc([C@@H]2c3cc4c(cc3[C@@H](O[C@@H]3O[C@@H]5CO[C@@H](C)O[C@H]5[C@H](O)[C@H]3O)[C@H]3COC(=O)[C@H]23)OCO4)cc(OC)c1O [Etoposide] (1000 nM) | 67% | 93.3% | 65.7% | 87.3% | 97.6% | 67.7% | 99.8% | 86.2% | 76.7% | 94% | 101% | 114% | 153% | 63.5% | 93.2% | 56.8% | 94.7% | 69% | 91%
CO[C@H]1/C=C\C=C(/C)C(=O)NC2=CC(=O)C(NCCN(C)C)=C(C[C@@H](C)C[C@H](OC)[C@H](O)[C@@H](C)/C=C(\C)[C@@H]1OC(N)=O)C2=O [Alvespimycin] (100 nM) | 46.6% | 52% | 26.7% | 39.6% | 31.3% | 44.1% | 13.5% | 35.4% | 33.7% | 36.5% | 23% | 39.9% | 25.8% | 76.9% | 36.1% | 0.07% | 26.5% | 23.9% | 41.8%
CN(C)/N=N/c1[nH]cnc1C(N)=O [Dacarbazine] (1000 nM) | 101% | 96% | 91.2% | 117% | 95.4% | 102% | 104% | 103% | 101% | 101% | 100% | 105% | 104% | 111% | 101% | 101% | 105% | 97.8% | 105%
Clc1ccc(Nc2nnc(Cc3ccncc3)c3ccccc23)cc1 [Vatalanib] (1000 nM) | 106% | 99.2% | 94.4% | 103% | 109% | 104% | 103% | 97% | 100% | 103% | 97.7% | 104% | 95.4% | 124% | 95.2% | 106% | 105% | 98.7% | 100%
COc1cc2nccc(Oc3ccc(NC(=O)C4(C(=O)Nc5ccc(F)cc5)CC4)cc3)c2cc1OC [Cabozantinib] (100 nM) | 99.2% | 101% | 109% | 96.7% | 97.6% | 104% | 88.6% | 92.2% | 96.5% | 95.6% | 93.6% | 98.7% | 106% | 117% | 87.7% | 99.6% | 90.5% | 98.1% | 103%
